The results in this text go back to ChEMBL document CHEMBL1201862, “PubChem BioAssay data set” (2004).

Among the test systems are SN12C; SF-539; A549; PC-3; M14; OVCAR-4; SK-MEL-2; SNB-75; SK-OV-3; CAKI-1; HOP-92; TK-10; U-251; MDA-N; OVCAR-8; MCF7; LOX IMVI; RPMI-8226.
Holding throughout (assay): NCI tumour cell line growth inhibition, 48 h

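The compound was tested at five concentrations on cells cultured in 96-well plates, with a 48-hour exposure period. GI50 is the concentration that inhibits growth by half.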 Activity calls are given as the source filed them. Cut-off read from the data, not from the text of the source: active = GI50 up to about 1.1 µM and inactive = higher. Where only a bound is given, the exact number is not on record here.

For `CC/C(N)=N\NC(=O)OC(C)(C)C`, the GI50 with SN12C, in the experiment on SF-539, in the experiment with A549, in the experiment with PC-3, with M14 and in the experiment with OVCAR-4 was > 100 µM (inactive) each time. The GI50 with SK-MEL-2, in the experiment with SNB-75, in the experiment on SK-OV-3, in the experiment on CAKI-1, in the experiment on HOP-92 and in the experiment on TK-10 was > 100 µM (inactive) in each case. The GI50 in the experiment with U-251, in the experiment with MDA-N, with OVCAR-8, in the experiment on MCF7, in the experiment with LOX IMVI and with RPMI-8226 was > 100 µM (inactive) each time.
Consider `COc1cc(C2c3cc4c(cc3OC(NNc3ccccc3)C2C)OCO4)cc(OC)c1OC` (centres undefined), for which the GI50 in the experiment on SN12C was 2.99 µM (inactive); in the experiment on SF-539, 0.571 µM (active); in the experiment with A549, 1.6 µM (inactive); with PC-3 it was 0.778 µM (active); in the experiment on M14 it was 0.869 µM (active); in the experiment with OVCAR-4, 4.94 µM (inactive). In addition, the GI50 in the experiment with SK-MEL-2 is 1.23 µM (inactive); in the experiment with SNB-75 it was 8.3 µM (inactive); in the experiment on SK-OV-3, 2.08 µM (inactive); in the experiment on CAKI-1, 0.982 µM (active); in the experiment on HOP-92, 6.43 µM (inactive); with TK-10, 2.48 µM (inactive). Moreover, the GI50 in the experiment with U-251 is 1.12 µM (inactive); with MDA-N it was 0.255 µM (active); in the experiment on OVCAR-8, 2.81 µM (inactive); with MCF7 it was 0.714 µM (active); in the experiment with LOX IMVI, 0.706 µM (active); with RPMI-8226, 1.43 µM (inactive).
`COc1ccc(C2c3cc4c(cc3OC3(OC)COC(=O)C23)OCO4)c(OC)c1` (centres undefined): the GI50 with SN12C was 15.6 µM (inactive); in the experiment on SF-539, 4.62 µM (inactive); with A549 it was 10.1 µM (inactive); in the experiment with PC-3 it was 17.7 µM (inactive); in the experiment with M14, 3.73 µM (inactive); in the experiment on OVCAR-4, 19.1 µM (inactive). Also, the GI50 with SK-MEL-2 is 12.6 µM (inactive); in the experiment with SNB-75 it was 8.93 µM (inactive); with SK-OV-3 it was 15.9 µM (inactive); with CAKI-1, 7.43 µM (inactive); with HOP-92 it was 26.5 µM (inactive); in the experiment with TK-10 it was 32.6 µM (inactive). In addition, the GI50 in the experiment on U-251 is 7.35 µM (inactive); with MDA-N it was 1.77 µM (inactive); in the experiment on OVCAR-8 it was 9.84 µM (inactive); in the experiment on MCF7, 4.85 µM (inactive); in the experiment with LOX IMVI it was 6.95 µM (inactive); with RPMI-8226 it was 3.56 µM (inactive).
On to `N=c1c2c(=S)n(-c3ccccc3)c(=S)n(-c3ccccc3)c2nc(SCCN2CCOCC2)n1-c1ccccc1`, for which the GI50 in the experiment on SN12C was 2.06 µM (inactive); in the experiment with SF-539 it was 3.83 µM (inactive); with A549 it was 1.78 µM (inactive); in the experiment with PC-3 it was 1.85 µM (inactive); in the experiment with M14, 1.93 µM (inactive); in the experiment with OVCAR-4 it was 1.76 µM (inactive). Further, the GI50 in the experiment on SK-MEL-2 was 2.86 µM (inactive); in the experiment on SNB-75, 2.07 µM (inactive); in the experiment on SK-OV-3, 6.1 µM (inactive); in the experiment with CAKI-1, 1.94 µM (inactive); in the experiment with HOP-92 it was 1.82 µM (inactive); in the experiment on TK-10, 1.71 µM (inactive). The GI50 with U-251 was 1.99 µM (inactive); with MDA-N, 2.26 µM (inactive); in the experiment on OVCAR-8, 2.06 µM (inactive); in the experiment on MCF7 it was 1.35 µM (inactive); in the experiment with LOX IMVI, 1.71 µM (inactive); in the experiment with RPMI-8226 it was 1.04 µM (active).
As for `CCOP(=O)(OCC)c1c(C(=O)OC)cc(=O)[nH]c1-c1ccc(C)cc1`, the GI50 in the experiment on SN12C was 22.4 µM (inactive); in the experiment on SF-539 it was 7.87 µM (inactive); in the experiment with A549, 15.2 µM (inactive); with PC-3, 16.7 µM (inactive); with M14, 11.6 µM (inactive); in the experiment on OVCAR-4, 8.2 µM (inactive). Further, the GI50 is 15.7 µM (inactive) in the experiment on SK-MEL-2; 12.8 µM (inactive) in the experiment on SNB-75; 22.8 µM (inactive) in the experiment with SK-OV-3; 5.46 µM (inactive) in the experiment with CAKI-1; 2.75 µM (inactive) with HOP-92; 14.4 µM (inactive) in the experiment with TK-10. Also, the GI50 in the experiment with U-251 is 13.1 µM (inactive); in the experiment on MDA-N, 24.8 µM (inactive); in the experiment with OVCAR-8 it was 17.7 µM (inactive); in the experiment with MCF7 it was 13.4 µM (inactive); in the experiment on LOX IMVI it was 17.7 µM (inactive); with RPMI-8226, 5.27 µM (inactive).
For `O=C(O)CCCNc1ncc2c(n1)-c1ccccc1OC2`, the GI50 in the experiment with SN12C, with SF-539, with A549, with PC-3, in the experiment with M14 and in the experiment on OVCAR-4 was > 100 µM (inactive) each time. Besides, the GI50 in the experiment on SK-MEL-2 is > 100 µM (inactive); in the experiment on SNB-75, 33.8 µM (inactive); in the experiment with SK-OV-3 it was > 100 µM (inactive); with CAKI-1, > 100 µM (inactive); with HOP-92, > 100 µM (inactive); with TK-10, > 100 µM (inactive). Moreover, the GI50 in the experiment on U-251, in the experiment with MDA-N, in the experiment on OVCAR-8, with MCF7, in the experiment on LOX IMVI and in the experiment on RPMI-8226 was > 100 µM (inactive) throughout.
Regarding `CCOc1cc(/C=N/c2ccc(Oc3ccc(Cl)cc3)c(Cl)c2)ccc1O`, the GI50 is 20.8 µM (inactive) in the experiment on SN12C; 22.8 µM (inactive) in the experiment on SF-539; 30.1 µM (inactive) with A549; 31.8 µM (inactive) in the experiment with PC-3; 29.8 µM (inactive) in the experiment on M14; 34 µM (inactive) in the experiment on OVCAR-4. Moreover, the GI50 in the experiment with SK-MEL-2 is 24.5 µM (inactive); in the experiment with SNB-75 it was 17.8 µM (inactive); with SK-OV-3, 26.1 µM (inactive); in the experiment with CAKI-1 it was 19.8 µM (inactive); in the experiment on HOP-92, 19.7 µM (inactive); in the experiment on TK-10, 43.1 µM (inactive). Further, the GI50 with U-251 is 21.7 µM (inactive); with MDA-N it was 25 µM (inactive); in the experiment on OVCAR-8, 23 µM (inactive); in the experiment on MCF7, 31.9 µM (inactive); in the experiment with LOX IMVI, 19.8 µM (inactive); with RPMI-8226, 29.7 µM (inactive).
With `COc1cc(C2c3cc4c(cc3OC(C)(N3CCCC3)C2C)OCO4)cc(OC)c1OC` (centres undefined), the GI50 in the experiment with SN12C was 0.446 µM (active); in the experiment on SF-539, 0.229 µM (active); in the experiment with A549, 0.515 µM (active); in the experiment on PC-3, 0.34 µM (active); in the experiment with M14, 0.242 µM (active); in the experiment on OVCAR-4, 9.48 µM (inactive). The GI50 was 0.405 µM (active) with SK-MEL-2; 0.269 µM (active) in the experiment on SNB-75; 0.391 µM (active) with SK-OV-3; 1.09 µM (active) in the experiment on CAKI-1; 2.19 µM (inactive) with HOP-92; 0.524 µM (active) with TK-10. Further, the GI50 in the experiment with U-251 is 0.385 µM (active); in the experiment on MDA-N it was 0.154 µM (active); in the experiment on OVCAR-8, 0.472 µM (active); with MCF7, 0.457 µM (active); with LOX IMVI, 0.452 µM (active); in the experiment with RPMI-8226 it was 0.337 µM (active).
